The source made the active and inactive calls. How the calls were made is not given here.
Assay: modifiers of cytoskeleton assembly, confirmation, imaging, high-content imaging, retest and dose response (AID 1249);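 further: compound exposure lasted 24 h before fixation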;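 on inhibition: plate controls were untreated cells for no effect and reference compound treated cells for full effect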
Conditions: cell-based imaging, cytoskeleton assembly phenotype, high content; for inhibition: at 2 µM, stronger effect = higher value; for cell count: at 10 µM, stronger effect = lower value

| SMILES | inhibition | cell count [%] |
| --- | --- | --- |
| CCOC(=O)c1cnn(-c2nc(-c3ccc(C)cc3)cs2)c1C(F)(F)F | -7.1% (inactive) |  |
| O=C(Cn1cccc1C(=O)c1ccccc1)NCCN1CCOCC1 | -4.4% (inactive) |  |
| COc1ccc(-c2cc(C(F)(F)F)nc(S(=O)(=O)CCC(=O)N3CCOCC3)n2)cc1 | 0% (inactive) |  |
| CCn1c(Cc2ccccc2)nnc1SCC(=O)NC1CC1 | 10.7% (inactive) |  |
| N=c1c2c(-c3ccccc3)c(-c3ccccc3)n(Cc3ccccc3)c2ncn1CCCn1ccnc1 | -9.6% (inactive) |  |
| CCCCN(C)CCCNC(=O)c1ccc2c(c1)NC(=O)C(N1CCOCC1)S2 (stereo not drawn) | 5.4% (inactive) |  |
| CCCCCc1ccc(-c2ccc(=O)[nH]n2)cc1 | -6.9% (inactive) |  |
| CCCn1c(=O)c2ccccc2n2c(SCC(=O)NCc3cccs3)nnc12 | -5.9% (inactive) |  |
| COc1cc(C2C(C#N)=C(N)Oc3cc(N(C)C)ccc32)cc2c1OCO2 (stereo not drawn) |  | 39.3 |
| Cc1oc2cc3c(C(=O)N4CCCCC4)c(C)oc3cc2c1C(=O)N1CCCCC1 | -4.7% (inactive) |  |
| CCCc1cc(=O)[nH]c(SCC(=O)Nc2nonc2N)n1 | 2.7% (inactive) |  |
| Cc1cc(C)n(C(=O)c2ccc(NC(=O)C3COc4ccccc4O3)cc2)n1 (stereo not drawn) | 1.1% (inactive) |  |
| O=C(O)C1CC=CCC1C(=O)N1CCCC1 (stereo not drawn) | 5.5% (inactive) |  |
| Cc1ccc(-n2ncc3c(N4CCN(c5ccccc5)CC4)ncnc32)c(C)c1 | -18.4% (inactive) |  |
| Oc1ccc(Nc2nc(-c3ccc4ccccc4c3)cs2)cc1 | -9.7% (inactive) |  |
| CC(CCc1ccccc1)NC(=O)c1ccc(Br)o1 (stereo not drawn) | -0.1% (inactive) |  |
| COc1ccc(-c2nc(-c3ccc(NC(=O)c4ccc(Br)o4)cc3)no2)cc1OC | -10.3% (inactive) |  |
| Cc1cc(C)n(-c2nc3ccccc3nc2N2CCN(C(=O)c3ccc(Cl)cc3)CC2)n1 | -2.4% (inactive) |  |
| CC(=NCCCO)c1c(O)n(Cc2ccccc2)c(=O)[nH]c1=O | 3.6% (inactive) |  |
| Cc1cc(NC(=O)CSc2nnnn2C)n(-c2ccccc2)n1 | -7.2% (inactive) |  |
| Cc1cc(C)c(C#N)c(SCc2nc3ccccc3[nH]2)n1 | -5.7% (inactive) |  |
| CN1C(=O)C2(NCCc3c2[nH]c2ccccc32)c2ccccc21 (stereo not drawn) | -6.1% (inactive) |  |
| O=C(NC1CC1)c1ccc(S(=O)(=O)NCC2CCCCC2)cc1 | -2.7% (inactive) |  |
| Cc1cc(N2CCC(C)CC2)nc(-n2nc(C)cc2C)n1 | 4.7% (inactive) |  |
| O=C(O)c1c[nH]c2ccc(S(=O)(=O)N3CCOCC3)cc12 | -7.4% (inactive) |  |

| SMILES | inhibition | cell count [%] |
| --- | --- | --- |
| CCOc1ccc(C2/C(=C(\O)c3c(C)[nH]c(C(=O)OC)c3C)C(=O)C(=O)N2CCN(C)C)cc1 (stereo not drawn) | -9% (inactive) |  |
| COc1ccc(-c2nnc(SCC(=O)NC3CCCCC3)o2)cc1OC | -3.7% (inactive) |  |
| CC(C)(C)SCCNC(=O)CN(c1ccc(F)cc1)S(C)(=O)=O | -2.5% (inactive) |  |
| C=CCn1c(=O)c2c(nc3n2CC(C)CN3c2cccc(OC)c2)n(C)c1=O (stereo not drawn) | -8.1% (inactive) |  |
| Cc1cc(C)c(/C=N/NC(N)=O)c(C)c1/C=N/NC(N)=O | -10% (inactive) |  |
| CCOC(=O)c1cc2c(ccn2C)n1Cc1ccccc1C | 2.4% (inactive) |  |
| COc1cc2[nH]cc(C(=O)NCCc3ccccc3)c(=O)c2cc1OC | 1.5% (inactive) |  |
| Fc1ccc(-n2[nH]nnc2=S)cc1N1CCCC1 | 10.6% (inactive) |  |
| CCOC(=O)c1ccc(NS(=O)C23CC4CC(CC(C4)C2)C3)cc1 (stereo not drawn) | -10.9% (inactive) |  |
| COc1cc(CNCc2ccco2)ccc1OCc1ccccc1 | -7.5% (inactive) |  |
| Cc1ccc(Cl)cc1NC1=C/C(=N\S(=O)(=O)c2cccs2)c2ccccc2C1=O | -8% (inactive) |  |
| Cc1ccc(OCC(O)CNS(=O)(=O)c2ccccc2C(=O)N2CCCCC2)cc1 (stereo not drawn) | -15.6% (inactive) |  |
| O=S(=O)(c1cccc(-n2cnnn2)c1)N1CCOCC1 | -4.7% (inactive) |  |
| COc1cc(/C=N/NC(=O)Nc2ccccc2)ccc1OCCOc1ccccc1C | 3.1% (inactive) |  |
| CCCOC(=O)C1C2C=C[C@]3(CN(CCc4ccccc4)C(=O)[C@H]13)O2 (stereo partly drawn) | -9.4% (inactive) |  |
| CCN1/C(=C\C=C\C2=[N+](CC)c3ccccc3C2(C)C)C(C)(C)c2ccccc21 | -15.4% (inactive) |  |
| CC1(C)OC(=O)C(=NNc2ccc(O)cc2)C(=O)O1 | -11.1% (inactive) |  |
| COc1ccc(S(=O)(=O)NC(CC(=O)NCc2ccco2)C(C)C)cc1 (stereo not drawn) | -5.2% (inactive) |  |
| O=C(O)C1CCC(N2C(=O)C3CCCCC3C2=O)CC1 (stereo not drawn) | -0.4% (inactive) |  |
| O=C1CCCc2c1[nH]c1ccc(Cl)cc21 | -17.2% (inactive) |  |
| CCOc1ccc(C=O)cc1CN1CCCCC1 | -10% (inactive) |  |
| CCCCC(=O)NC(=S)Nc1ccccc1C(=O)Nc1ccccc1 | 3.2% (inactive) |  |
| CO/N=C/C(=N\Nc1ccc(C)cc1)C(=O)c1ccc(OC)cc1 | -0.5% (inactive) |  |
| CN=C(Nc1cc(C)nn1CCC#N)c1ccccc1F | -24.5% (inactive) |  |
| CC(=O)N1CN2CN(C(C)=O)CC(C(=O)c3ccccc3)(C2)C1 | -10.6% (inactive) |  |

| SMILES | inhibition | cell count [%] |
| --- | --- | --- |
| Cc1ccccc1NC1=C/C(=N\S(=O)(=O)c2cccs2)c2ccccc2C1=O | -3.8% (inactive) |  |
| Oc1ccc(N=Nc2n[nH]c(-c3ccc(Cl)cc3)n2)cc1 | -2.5% (inactive) |  |
| CCCc1nnc(SCC(=O)O)n1/N=C/c1ccc2c(c1)OCO2 | -4.9% (inactive) |  |
| Nc1cc(=O)nc(SCc2ccccc2)n1Cc1ccco1 | 3.5% (inactive) |  |
| Cc1nn(S(=O)(=O)c2ccccc2)c(C)c1Sc1ccc([N+](=O)[O-])cc1 | 2.5% (inactive) |  |
| O=C1OCC(CO)(CO)N=C1NNc1ccccc1Cl | 19.6% (inactive) |  |
| Cc1ccc(N/N=C/c2ccc(N3CCOCC3)cc2)cc1C | -7.8% (inactive) |  |
| O=C(c1ccc2snnc2c1)N1CCSCC1 | -15.8% (inactive) |  |
| Cc1cc(C)cc(-n2nnnc2SCC(=O)Nc2nc(-c3ccc(Cl)cc3)cs2)c1 | -9.2% (inactive) |  |
| COc1cc(NC(=O)CN2C(=O)NC(C)(CC(C)C)C2=O)cc(OC)c1 (stereo not drawn) | 1.2% (inactive) |  |
| Cc1cc(C)cc(OCC(=O)Nc2nonc2NC(=O)COc2cc(C)cc(C)c2)c1 | -12% (inactive) |  |
| COc1ccc(S(=O)(=O)N2CCCC2C(=O)Nc2ccc(C)cc2)cc1 (stereo not drawn) | 3.2% (inactive) |  |
| CC(C)(C)NS(=O)(=O)c1ccc(Oc2ncc(C(F)(F)F)cc2Cl)cc1 | 12.1% (inactive) |  |
| CCC(=O)Nc1nc(-c2ccccc2)ns1 | -1.3% (inactive) |  |
| COC(=O)CCSc1nccn1Cc1ccccc1 | -9.8% (inactive) |  |
| CC1(C)Cc2c(oc3ncn4ncnc4c23)CO1 | 2.7% (inactive) |  |
| CC(=O)Nc1nc2cc3c(cc2s1)OCO3 | 1.3% (inactive) |  |
| Nc1ccc2c3c(cccc13)CC2 | -5.4% (inactive) |  |
| COCCOC(=O)c1[nH]c2c(c1C)C(=O)CC(c1ccccc1)C2 (stereo not drawn) |  | 56 |
| Cc1ccc(Nc2nc(CSc3nnnn3C)cs2)cc1 | -5.6% (inactive) |  |
| O=C(CCN1C(=O)C2C3C=CC(C3)C2C1=O)NCC1CCCO1 (stereo not drawn) | 9.9% (inactive) |  |
| CCOc1ccc2[nH]c(C)c(CN3CCOCC3)c(=O)c2c1 | -4.5% (inactive) |  |
| COC1(c2ccccc2)NC(=S)NN=C1c1ccccc1 (stereo not drawn) | -7.4% (inactive) |  |
